Test results reported in publication PMC3037030 (Biochimica et biophysica acta, 2010).
Where two headings read alike, the source gives them in different places. Each block holds one compound with its values, some of them ahead of it.

Key:
[1] = target: T1, Acsl4 (Rattus norvegicus, UniProt O35547); assay: radiometric acyl-CoA synthetase assay; type: biochemical; details: read-out: Substrate / AA
[2] = target: T1, Acsl4; type: biochemical
[3] = target: T1, Acsl4; assay: radiometric acyl-CoA synthetase assay; type: biochemical
[4] = target: T1, Acsl4; assay: radiometric acyl-CoA synthetase assay, […] inhibition at […]; type: cell-based; details: read-out: % inhibition at 10 μM
[5] = target: Acsl3 (Rattus norvegicus, UniProt Q63151); assay: as above; type: cell-based; details: read-out: % inhibition at 10 μM
Chain of Acsl3 (Q63151 whole entry): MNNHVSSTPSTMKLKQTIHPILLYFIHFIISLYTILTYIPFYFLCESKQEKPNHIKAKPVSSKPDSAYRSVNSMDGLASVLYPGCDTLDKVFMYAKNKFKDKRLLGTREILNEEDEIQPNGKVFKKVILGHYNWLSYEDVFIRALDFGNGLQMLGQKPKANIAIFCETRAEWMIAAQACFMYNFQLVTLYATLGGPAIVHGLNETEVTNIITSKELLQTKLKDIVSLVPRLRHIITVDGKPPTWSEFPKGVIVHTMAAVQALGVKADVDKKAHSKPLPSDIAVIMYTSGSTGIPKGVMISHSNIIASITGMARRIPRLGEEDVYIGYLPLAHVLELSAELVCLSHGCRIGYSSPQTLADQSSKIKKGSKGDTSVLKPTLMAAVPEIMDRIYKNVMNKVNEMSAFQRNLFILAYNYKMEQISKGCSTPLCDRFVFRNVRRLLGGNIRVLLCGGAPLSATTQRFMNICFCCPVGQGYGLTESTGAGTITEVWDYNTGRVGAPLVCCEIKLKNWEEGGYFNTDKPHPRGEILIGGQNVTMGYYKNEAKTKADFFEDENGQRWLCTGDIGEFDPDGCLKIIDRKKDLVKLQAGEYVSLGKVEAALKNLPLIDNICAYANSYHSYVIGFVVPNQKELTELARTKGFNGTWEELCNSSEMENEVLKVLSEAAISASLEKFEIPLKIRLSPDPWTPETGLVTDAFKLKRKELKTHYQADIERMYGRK

T1 sequence (O35547 whole entry): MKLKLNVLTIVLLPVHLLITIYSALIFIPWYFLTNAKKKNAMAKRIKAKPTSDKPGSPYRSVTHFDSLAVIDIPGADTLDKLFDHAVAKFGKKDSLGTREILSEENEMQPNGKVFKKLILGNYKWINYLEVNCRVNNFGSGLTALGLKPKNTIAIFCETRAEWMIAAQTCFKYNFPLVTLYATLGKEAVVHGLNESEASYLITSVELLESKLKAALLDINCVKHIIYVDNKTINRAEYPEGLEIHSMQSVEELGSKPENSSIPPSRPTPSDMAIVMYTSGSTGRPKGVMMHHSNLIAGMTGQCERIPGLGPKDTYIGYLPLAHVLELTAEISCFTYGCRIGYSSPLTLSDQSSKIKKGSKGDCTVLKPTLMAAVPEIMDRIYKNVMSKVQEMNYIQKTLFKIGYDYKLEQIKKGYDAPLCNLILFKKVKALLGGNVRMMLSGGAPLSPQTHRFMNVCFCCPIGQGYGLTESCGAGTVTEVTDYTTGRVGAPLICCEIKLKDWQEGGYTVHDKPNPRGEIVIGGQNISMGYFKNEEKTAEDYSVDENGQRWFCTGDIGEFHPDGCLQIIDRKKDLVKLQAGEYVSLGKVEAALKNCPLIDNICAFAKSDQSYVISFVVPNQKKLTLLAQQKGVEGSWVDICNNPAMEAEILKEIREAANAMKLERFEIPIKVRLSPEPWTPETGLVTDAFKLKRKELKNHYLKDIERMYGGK

Compound: CCCCC/C=C\C/C=C\C/C=C\C/C=C\CCCC(=O)O [AA, arachidonic acid]
Km [1]: 4.98 ± 1.41 µM

Compound: CCC/C=C/C/C=C/C=C/C=N/NN=O [triacsin C]
inhibition at 10 µM [4]: 85%
inhibition at 10 µM [5]: 90%

Further lines, results first:

Ki [2]: 24.9 ± 2.61 mM
Compound: CCCC(CCC)C(=O)O [VPA, valproate]

Km ([3]; read-out: Substrate / DHA): 26.6 ± 3.95 µM
Compound: CC/C=C\C/C=C\C/C=C\C/C=C\C/C=C\C/C=C\CCC(=O)O [DHA, docosahexaenoic acid]

Km ([3]; read-out: Substrate / Palmitic Acid): 16.7 ± 6.25 µM
Compound: CCCCCCCCCCCCCCCC(=O)O [palmitic acid]
